Biological target: T1, human V1a receptor (Homo sapiens, UniProt P37288)
T1 construct: host or cells: CHO cells
Test: Human vasopressin V1a receptor binding assay
Conditions: hV1a CHO cell line, competition with 1 nM 3H-AVP; for IC50: read-out: V1a Binding Affinity IC50; for Ki: read-out: V1a Ki
Description: EXAMPLE. Human vasopressin V1a receptor binding assay. A cell line expressing the human V1a receptor in CHO cells (henceforth referred to as the hV1a cell line) was obtained from Dr. Michael Brownstein, NIMH, Bethesda, Md., USA. The hV1a cDNA sequence is described by Thibonnier et al., Journal of Biological Chemistry, 269, 3304-3310 (1994), and the expression method was the same as described by Morel et al. (1992). The hV1a cell line was grown in alpha-MEM with 10% fetal bovine serum and 250 ug/ml G418 (Gibco, Grand Island, N.Y., USA). For competitive binding assay, hV1a cells were plated into 6-well culture plate at 1:10 dilution from a confluency flask, and maintained in culture for at least two days. Culture medium was then removed, cells were washed with 2 ml binding buffer (25 mM Hepes, 0.25% BSA, 1×DMEM, PH=7.0). To each well, 990 μl binding buffer containing 1 nM 3H-AVP was added, and followed by 10 μl series diluted Example compounds dissolved in DMSO. […] 100 nM cold AVP (Sigma) was used to assess non-specific binding. Cells were incubated for 45 minutes at 37° C., assay mixture was removed and each well was washed three times with PBS (pH=7.4). 1 ml 2% SDS was added per well and plates were let sit for 30 minutes. The whole content in a well was transferred to a scintillation vial. Each well was rinsed with 0.5 ml PBS which was then added to the corresponding vial. Scintillation fluid (Ecoscint, National Diagnostics, Atlanta, Ga.) was then added at 3 ml per vial. Samples were counted in a liquid scintillation counter (Beckman LS3801). IC50 values were calculated by Prism Curve fitting software.
All of the alkanedioic esters and amides exemplified in the foregoing examples dissolved in DMSO were tested in this assay. Binding curves were generated according to methods described by Thibonnier et al. (1994). [^3H]-AVP was added to the hV1a cell cultures followed by 10-fold dilutions of each test compound.

T1 sequence (P37288 whole entry): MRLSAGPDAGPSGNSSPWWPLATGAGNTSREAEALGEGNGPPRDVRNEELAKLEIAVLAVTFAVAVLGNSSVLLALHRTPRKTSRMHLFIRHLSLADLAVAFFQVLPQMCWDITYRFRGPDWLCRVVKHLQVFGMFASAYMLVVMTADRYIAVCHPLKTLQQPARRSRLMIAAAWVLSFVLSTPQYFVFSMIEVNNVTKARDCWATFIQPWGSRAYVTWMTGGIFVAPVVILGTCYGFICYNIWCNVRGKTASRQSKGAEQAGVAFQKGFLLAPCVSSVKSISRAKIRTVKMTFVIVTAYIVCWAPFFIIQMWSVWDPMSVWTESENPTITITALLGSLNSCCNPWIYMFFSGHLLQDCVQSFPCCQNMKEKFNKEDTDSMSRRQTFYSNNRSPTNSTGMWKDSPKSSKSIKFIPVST

Row | IC50 [nM] | Ki [nM] | Compound
1 | 0.63 | 0.39 | COc1ccc(OC)c(CNC(=O)C(CCC(=O)N2CCN(C3CCCCC3)CC2)N2C(=O)C(N3C(=O)OCC3c3ccccc3)C2C=Cc2ccccc2)c1 (stereo not drawn) [Example 219]
2 | 5.3 | 3.26 | COc1ccccc1CNC(=O)C(CCC(=O)N1CCN(C2CCCCC2)CC1)N1C(=O)C(N2C(=O)OCC2c2ccccc2)C1C=Cc1ccccc1 (stereo not drawn) [Example 220]
3 | ~50 | – | O=C(CC[C@@H](C(=O)N[C@@H]1CCCc2ccccc21)N1C(=O)[C@@H](N2C(=O)OC[C@@H]2c2ccccc2)[C@H]1/C=C/c1ccccc1)N[C@@H]1CCN(Cc2ccccc2)C1 [Example 221AD]
4 | ~50 | – | CCN1CCCC1CNC(=O)CCC(C(=O)NC1CCCc2ccccc21)N1C(=O)C(N2C(=O)OCC2c2ccccc2)C1C=Cc1ccccc1 (stereo not drawn) [Example 221AI]
5 | – | 3.8 | Cc1ccc(C2(NC(=O)C(CCC(=O)N3CCN(C4CCCCC4)CC3)N3C(=O)C(N4C(=O)OCC4c4ccccc4)C3C=Cc3ccccc3)CC2)cc1 (stereo not drawn) [Example 221AP]
6 | 1.7 | 1.04 | C[C@@H](NC(=O)[C@H](CCC(=O)N1CCN(C2CCCCC2)CC1)N1C(=O)[C@@H](N2C(=O)OC[C@@H]2c2ccccc2)[C@H]1/C=C/c1ccccc1)c1cccc(C(F)(F)F)c1 [Example 221F]
7 | 1.7 | 1.1 | O=C(NC1Cc2ccccc2C1)C(CCC(=O)N1CCN(C2CCCCC2)CC1)N1C(=O)C(N2C(=O)OCC2c2ccccc2)C1C=Cc1ccccc1 (stereo not drawn) [Example 221P]
8 | 5.13 | 3.14 | O=C(NC1CCc2ccccc21)C(CCC(=O)N1CCN(C2CCCCC2)CC1)N1C(=O)C(N2C(=O)OCC2c2ccccc2)C1C=Cc1ccccc1 (stereo not drawn) [Example 221R]
9 | 5.1 | – | Cc1ccccc1C(C)(C)NC(=O)C(CCC(=O)N1CCN(C2CCCCC2)CC1)N1C(=O)C(N2C(=O)OCC2c2ccccc2)C1C=Cc1ccccc1 (stereo not drawn) [Example 221]
10 | 0.28 | 0.17 | O=C(C(COCc1ccccc1)N1C(=O)C(N2C(=O)OCC2c2ccccc2)C1C=Cc1ccccc1)N1CCC(CN2CCCCC2)CC1 (stereo not drawn) [Example 232E]
11 | 6.6 | 4 | CCN1CCN(C(=O)CCC(C(=O)NC2(c3ccccc3)CCCC2)N2C(=O)C(N3C(=O)OCC3c3ccccc3)C2C=Cc2ccccc2)CC1 (stereo not drawn) [Example 239]
12 | 25 | 15.5 | O=C(NC1(c2ccccc2)CCCC1)C(CCC(=O)N1CCN(Cc2ccccc2)CC1)N1C(=O)C(N2C(=O)OCC2c2ccccc2)C1C=Cc1ccccc1 (stereo not drawn) [Example 240]
13 | 2 | 1.24 | O=C(NC1CCCc2ccccc21)C(CCC(=O)N1CCN(C2CCCC2)CC1)N1C(=O)C(N2C(=O)OCC2c2ccccc2)C1C=Cc1ccccc1 (stereo not drawn) [Example 241]
14 | 2.2 | 1.36 | COc1cccc(C=CC2C(N3C(=O)OCC3c3ccccc3)C(=O)N2C(CCC(=O)N2CCN(C3CCCCC3)CC2)C(=O)NC2CCCc3ccccc32)c1 (stereo not drawn) [Example 242]
15 | 0.5 | 0.3 | O=C(NC1CCCc2ccccc21)C(CCC(=O)N1CCN(C2CCCCC2)CC1)N1C(=O)C(N2C(=O)OCC2c2ccccc2)C1C=Cc1cccc(Cl)c1 (stereo not drawn) [Example 243]
16 | 3.4 | 2.1 | O=C(NC1(c2ccccc2)CCCC1)C(CCC(=O)N1CCN(C2CCCCC2)CC1)N1C(=O)C(N2C(=O)OCC2c2ccccc2)C1C=Cc1cccc(Cl)c1 (stereo not drawn) [Example 244]
17 | 1.1 | 0.68 | O=C(NC1CCCc2ccccc21)C(CCC(=O)N1CCN(C2CCCCC2)CC1)N1C(=O)C(N2C(=O)OCC2c2ccccc2)C1C=Cc1cccc(F)c1 (stereo not drawn) [Example 245]
18 | 2.1 | 1.3 | O=C(NC1CCCc2ccccc21)C(CCC(=O)N1CCN(C2CCCCC2)CC1)N1C(=O)C(N2C(=O)OCC2c2ccccc2)C1C=Cc1cccc(C(F)(F)F)c1 (stereo not drawn) [Example 246]
19 | 0.6 | 0.39 | CN(Cc1cccc(C(F)(F)F)c1)C(=O)C(CC(=O)N1CCC(N2CCCCC2)CC1)N1C(=O)C(N2C(=O)OCC2c2ccccc2)C1C=Cc1cccc(Cl)c1 (stereo not drawn) [Example 247]

Row | IC50 [nM] | Ki [nM] | Compound
20 | 5.3 | 3.3 | N#Cc1cccc(C=CC2C(N3C(=O)OCC3c3ccccc3)C(=O)N2C(CCC(=O)N2CCN(C3CCCCC3)CC2)C(=O)NC2CCCc3ccccc32)c1 (stereo not drawn) [Example 248]
21 | 1.7 | 1 | O=C(NC1CCCc2ccccc21)C(CCC(=O)N1CCN(C2CCCCC2)CC1)N1C(=O)C(N2C(=O)OCC2c2ccccc2)C1C=Cc1cccc([N+](=O)[O-])c1 (stereo not drawn) [Example 249]
22 | 6.5 | 4 | O=C(NC1CCCc2ccccc21)C(CCC(=O)N1CCN(C2CCCCC2)CC1)N1C(=O)C(N2C(=O)OCC2c2ccccc2)C1C=Cc1ccccc1Cl (stereo not drawn) [Example 250]
23 | 0.5 | 0.3 | O=C(NC1CCCc2ccccc21)C(CCC(=O)N1CCN(C2CCCCC2)CC1)N1C(=O)C(N2C(=O)OCC2c2cccc(Cl)c2)C1C=Cc1cccc(Cl)c1 (stereo not drawn) [Example 251]
24 | 1.8 | 1.1 | O=C(NC1CCCc2ccccc21)C(CCC(=O)N1CCN(C2CCCCC2)CC1)N1C(=O)C(N2C(=O)OCC2c2ccccc2)C1C=Cc1cc(Cl)cc(Cl)c1 (stereo not drawn) [Example 252]
25 | 2.8 | 1.7 | CC(NC(=O)C(CC(=O)N1CCC(N2CCCCC2)CC1)N1C(=O)C(N2C(=O)OCC2c2cccc(Cl)c2)C1C=Cc1ccccc1)c1ccccc1 (stereo not drawn) [Example 256]
26 | 0.12 | 0.073 | CC(NC(=O)C(CC(=O)N1CCC(N2CCCCC2)CC1)N1C(=O)C(N2C(=O)OCC2c2ccccc2)C1CCc1cccc(Cl)c1)c1ccccc1 (stereo not drawn) [Example 559]
27 | – | 19 | CC(NC(=O)C(CC(=O)N1CCC(N2CCCCC2)CC1)N1C(=O)C(N2C(=O)OCC2c2ccccc2)C1CCc1ccc(O)cc1)c1ccccc1 (stereo not drawn) [Example 594]
28 | 6.2 | 3.8 | CC(NC(=O)C(CC(=O)N1CCC(N2CCCCC2)CC1)N1C(=O)C(N2C(=O)OCC2c2ccccc2)C1CCc1cccc([N+](=O)[O-])c1)c1ccccc1 (stereo not drawn) [Example 597]
29 | 14.4 | 8.8 | CC(NC(=O)C(CC(=O)N1CCC(N2CCCCC2)CC1)N1C(=O)C(N2C(=O)OCC2c2ccccc2)C1CCc1cccc(N)c1)c1ccccc1 (stereo not drawn) [Example 600]
30 | 0.53 | 0.32 | CC(NC(=O)C(CC(=O)N1CCC(N2CCCCC2)CC1)N1C(=O)C(N2C(=O)OCC2c2ccccc2)C1CCc1cccc(Br)c1)c1ccccc1 (stereo not drawn) [Example 606]
31 | – | 0.69 | CN(Cc1cccc(C(F)(F)F)c1)C(=O)C(CC(=O)N1CCC(N2CCCCC2)CC1)N1C(=O)C(N2C(=O)OCC2c2ccccc2)C1CCc1cccc(Br)c1 (stereo not drawn) [Example 617]
32 | – | 0.85 | O=C(NC(c1ccccc1)C(F)(F)F)C(CC(=O)N1CCC(N2CCCCC2)CC1)N1C(=O)C(N2C(=O)OCC2c2ccccc2)C1CCc1ccccc1 (stereo not drawn) [Example 623]
33 | – | 0.27 | O=C(NC(c1ccccc1)C(F)(F)F)C(CC(=O)N1CCC(N2CCCCC2)CC1)N1C(=O)C(N2C(=O)OCC2c2ccccc2)C1CCc1ccccc1 (stereo not drawn) [Example 626]
34 | – | 3 | O=C(NCc1ccccc1F)C(CC(=O)N1CCC(N2CCCCC2)CC1)N1C(=O)C(N2C(=O)OCC2c2ccccc2)C1CCc1ccccc1 (stereo not drawn) [Example 677]
35 | – | 0.9 | O=C(NCc1ccccc1Br)C(CC(=O)N1CCC(N2CCCCC2)CC1)N1C(=O)C(N2C(=O)OCC2c2ccccc2)C1CCc1ccccc1 (stereo not drawn) [Example 682]
36 | – | 0.63 | Cc1cccc(CCC2C(N3C(=O)OCC3c3ccccc3)C(=O)N2C(CC(=O)N2CCC(N3CCCCC3)CC2)C(=O)NC(C)c2ccccc2)c1 (stereo not drawn) [Example 778]
37 | 9 | 5.5 | (2S)-[(4-cyclohexylpiperazinyl)carbonylethyl]-2-[3(S)-(4(S)-phenyloxazolidin-2-on-3-yl)-4(R)-(2-phenyleth-1-yl)azetidin-2-on-1-yl]acetic acid N—[(R)-1,2,3,4-tetrahydronaphth-1-yl]amide [Example 236A]
